Results as given in patent US20080064691A1, “Heterocyclic Amide Derivatives Which Possess Glycogen Phosphorylase Inhibitory Activity” (AstraZeneca AB, priority 2003, published 2008).
pIC50: −log10 of the molar value.

What was measured:
[1] = target: T1, Human recombinant liver glycogen phosphorylase a (hrl GPα) (Homo sapiens, UniProt P06737); assay: glycogen phosphorylase inhibition, multienzyme coupled assay (glucose-1-phosphate production from glycogen); format: biochemical; conditions: hrl GPα 20 nM, 6 hours at 30° C.
T1 sequence (P06737 1-847): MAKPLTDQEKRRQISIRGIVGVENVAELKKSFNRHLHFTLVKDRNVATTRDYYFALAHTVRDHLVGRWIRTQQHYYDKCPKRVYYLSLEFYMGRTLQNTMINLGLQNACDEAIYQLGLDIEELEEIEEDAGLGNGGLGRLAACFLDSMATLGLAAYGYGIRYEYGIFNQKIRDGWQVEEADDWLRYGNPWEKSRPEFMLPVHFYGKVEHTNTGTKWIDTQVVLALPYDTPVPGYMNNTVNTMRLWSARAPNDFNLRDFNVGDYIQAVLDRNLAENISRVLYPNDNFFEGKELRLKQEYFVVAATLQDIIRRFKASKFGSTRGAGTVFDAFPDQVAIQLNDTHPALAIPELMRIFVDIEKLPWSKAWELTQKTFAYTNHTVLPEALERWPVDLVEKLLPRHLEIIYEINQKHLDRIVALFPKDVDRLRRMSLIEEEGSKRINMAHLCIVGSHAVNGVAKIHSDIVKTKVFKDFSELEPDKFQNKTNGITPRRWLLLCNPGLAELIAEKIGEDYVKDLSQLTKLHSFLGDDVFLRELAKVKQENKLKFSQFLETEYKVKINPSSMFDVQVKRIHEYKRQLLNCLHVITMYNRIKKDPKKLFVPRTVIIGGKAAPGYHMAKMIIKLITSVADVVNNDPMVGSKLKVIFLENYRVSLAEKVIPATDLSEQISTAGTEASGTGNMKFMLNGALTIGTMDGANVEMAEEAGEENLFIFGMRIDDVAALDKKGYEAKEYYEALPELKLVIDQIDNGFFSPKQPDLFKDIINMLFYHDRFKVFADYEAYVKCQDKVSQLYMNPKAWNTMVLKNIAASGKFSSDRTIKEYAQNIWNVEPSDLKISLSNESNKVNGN
Procedure: The activity of the compounds is determined by measuring the inhibitory effect of the compounds on glycogen degradation, the production of glucose-1-phosphate from glycogen is monitored by the multienzyme coupled assay, as described in EP 0 846 464 A2, general method of Pesce et al (Pesce, M A, Bodourian, S H, Harris, R C, and Nicholson, J F (1977) Clinical Chemistry 23, […]). The reactions were in 384 well microplate format in a volume of 50 μl. The change in fluorescence due to the conversion of the co-factor NAD to NADH is measured at 340 nm excitation, 465 nm emission in a Tecan Ultra Multifunctional Microplate Reader. The reaction is in 50 mM HEPES, 3.5 mM KH2PO4, 2.5 mM MgCl2, 2.5 mM ethylene glycol-bis(b-aminoethyl ether) N,N,N′,N′-tetraacetic acid, 100 mM KCl, 8 mM D-(+)-glucose pH7.2, containing 0.5 mM dithiothreitol, the assay buffer solution. Human recombinant liver glycogen phosphorylase a (hrl GPα) 20 nM is pre-incubated in assay buffer solution with 6.25 mM NAD, 1.25 mg type III glycogen at 1.25 mg ml^−1 the reagent buffer, for 30 minutes. […] The non-inhibited activity of GPα is measured in the presence of 10 μl 5% DMSO in assay buffer solution and maximum inhibition measured in the presence of 5 mgs ml^−1 N-ethylmaleimide. […] Relative Fluoresence Units (RFUs) are measured at 340 nm excitation, 465 nm emission . […]

[2] = tested on: conscious dogs; conditions: cited from earlier work
[3] = tested on: hepatocytes; conditions: cited from earlier work
[4] = tested on: db/db and ob/ob mice; conditions: db/db and ob/ob mice following treatment; cited from earlier work

Structure (SMILES) | pIC50 [1] | arterial plasma glucose following a glucagon challenge [2] | hepatic glucose output following a glucagon challenge [2] | glucagon stimulated glycogenolysis [3] | glucose output [3] | plasma glucose concentration [4]
O=C(N[C@@H]1Cc2ccccc2[C@H]1CO)c1cc2cc(Cl)sc2[nH]1 [Example 5, 2-Chloro-N-[(1R,2R)-1-(hydroxymethyl)-2,3-dihydro-1H-inden-2-yl]-6H-thieno[2,3-b]pyrrole-5-carboxamide] | 6.31 |  |  |  |  | 
CCN1C(C)=C(C(=O)OC(C)C)C(c2ccccc2Cl)C2=C1COC2=O (stereo not drawn) [Bay R3401] |  | reduced significantly | reduced significantly |  |  | 
CN(C)C(=O)[C@H](O)[C@H](Cc1ccccc1)NC(=O)c1cc2cc(Cl)ccc2[nH]1 [CP91149] |  |  |  | reduce | reduce | reduced, in a dose related manner
O=C(N[C@@H](Cc1ccc(F)cc1)C(=O)N1CCC(O)CC1)c1cc2cc(Cl)ccc2[nH]1 [CP320626] |  |  |  | reduce | reduce | reduced, in a dose related manner
